Test results from PubChem BioAssay (NCI).
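Grown in 96-well plates, cells were treated for 48 hours with each compound at five concentrations. Insufficient inhibition: endpoint recorded as highest concentration tested. The concentration for 50% growth inhibition is given as GI50. At the TGI there is no net growth.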

Columns and labels:
Assay in all cases: DTP human tumour cell line panel, 48 h
786-0 renal = system: 786-0 renal
A498 renal = system: A498 renal
A549 NSCLC = system: A549 NSCLC
ACHN renal = system: ACHN renal
BT-549 breast = system: BT-549 breast
CAKI-1 renal = system: CAKI-1 renal
CCRF-CEM leukemia = system: CCRF-CEM leukemia
COLO 205 colon = system: COLO 205 colon
DU-145 prostate = system: DU-145 prostate
HCC-2998 colon = system: HCC-2998 colon
HCT-15 colon = system: HCT-15 colon
HL-60(TB) leukemia = system: HL-60(TB) leukemia
HOP-62 NSCLC = system: HOP-62 NSCLC
HS 578T breast = system: HS 578T breast
HT29 colon = system: HT29 colon
IGROV1 ovarian = system: IGROV1 ovarian
K-562 leukemia = system: K-562 leukemia
KM12 colon = system: KM12 colon
M14 melanoma = system: M14 melanoma
MALME-3M melanoma = system: MALME-3M melanoma
MDA-MB-231 breast = system: MDA-MB-231 breast
MDA-MB-435 = system: MDA-MB-435
MOLT-4 leukemia = system: MOLT-4 leukemia
NCI-H226 lung = system: NCI-H226 lung
NCI-H23 lung = system: NCI-H23 lung
NCI-H460 lung = system: NCI-H460 lung
NCI-H522 lung = system: NCI-H522 lung
NCI/ADR-RES ovarian = system: NCI/ADR-RES ovarian
OVCAR-3 ovarian = system: OVCAR-3 ovarian
OVCAR-5 ovarian = system: OVCAR-5 ovarian
OVCAR-8 ovarian = system: OVCAR-8 ovarian
PC-3 prostate = system: PC-3 prostate
RPMI-8226 leukemia = system: RPMI-8226 leukemia
RXF 393 renal = system: RXF 393 renal
SF-268 CNS = system: SF-268 CNS
SF-295 CNS = system: SF-295 CNS
SF-539 CNS = system: SF-539 CNS
SK-MEL-2 melanoma = system: SK-MEL-2 melanoma
SK-MEL-28 melanoma = system: SK-MEL-28 melanoma
SK-MEL-5 melanoma = system: SK-MEL-5 melanoma
SK-OV-3 ovarian = system: SK-OV-3 ovarian
SN12C renal = system: SN12C renal
SNB-19 CNS = system: SNB-19 CNS
SNB-75 CNS = system: SNB-75 CNS
SR leukemia = system: SR leukemia
SW-620 colon = system: SW-620 colon
T-47D breast = system: T-47D breast
TK-10 renal = system: TK-10 renal
U251 CNS = system: U251 CNS
UACC-257 melanoma = system: UACC-257 melanoma
UACC-62 melanoma = system: UACC-62 melanoma
UO-31 renal = system: UO-31 renal

Cc1cc(C)cc(NC2=C(Cl)C(=O)c3nc(C)ccc3C2=O)c1
GI50 (786-0 renal): 1.7 µM
TGI (786-0 renal): 3.42 µM
GI50 (A498 renal): 14.3 µM
TGI (A498 renal): 28.1 µM
GI50 (A549 NSCLC): 4.37 µM
TGI (A549 NSCLC): 19.1 µM
GI50 (ACHN renal): 1.78 µM
TGI (ACHN renal): 3.4 µM
GI50 (BT-549 breast): 1.41 µM
TGI (BT-549 breast): 2.83 µM
GI50 (CAKI-1 renal): 1.59 µM
TGI (CAKI-1 renal): 3.18 µM
GI50 (CCRF-CEM leukemia): 2.09 µM
TGI (CCRF-CEM leukemia): 5.78 µM
GI50 (COLO 205 colon): 2.23 µM
TGI (COLO 205 colon): 5.01 µM
GI50 (DU-145 prostate): 1.85 µM
TGI (DU-145 prostate): 3.55 µM
GI50 (HCC-2998 colon): 3.18 µM
TGI (HCC-2998 colon): 10.5 µM
GI50 (HCT-15 colon): 1.09 µM
TGI (HCT-15 colon): 2.64 µM
GI50 (HL-60(TB) leukemia): 1.55 µM
TGI (HL-60(TB) leukemia): 3.85 µM
GI50 (HOP-62 NSCLC): 4.66 µM
TGI (HOP-62 NSCLC): 19.7 µM
GI50 (HS 578T breast): 2.24 µM
TGI (HS 578T breast): 5.81 µM
GI50 (HT29 colon): 3.66 µM
TGI (HT29 colon): 19.2 µM
GI50 (IGROV1 ovarian): 1.81 µM
TGI (IGROV1 ovarian): 3.95 µM
GI50 (K-562 leukemia): 0.712 µM
TGI (K-562 leukemia): 4.81 µM
GI50 (KM12 colon): 5.6 µM
TGI (KM12 colon): 20.7 µM
GI50 (M14 melanoma): 1.63 µM
TGI (M14 melanoma): 3.07 µM
GI50 (MALME-3M melanoma): 2.3 µM
TGI (MALME-3M melanoma): 4.42 µM
GI50 (MDA-MB-231 breast): 1.68 µM
TGI (MDA-MB-231 breast): 4.13 µM
GI50 (MDA-MB-435): 1.96 µM
TGI (MDA-MB-435): 3.86 µM
GI50 (MOLT-4 leukemia): 1.6 µM
TGI (MOLT-4 leukemia): 5.61 µM
GI50 (NCI-H226 lung): 1.8 µM
TGI (NCI-H226 lung): 4.58 µM
GI50 (NCI-H23 lung): 1.7 µM
TGI (NCI-H23 lung): 4.59 µM
GI50 (NCI-H460 lung): 4.2 µM
TGI (NCI-H460 lung): 20.1 µM
GI50 (NCI-H522 lung): 2.05 µM
TGI (NCI-H522 lung): 5.29 µM
GI50 (NCI/ADR-RES ovarian): 2.06 µM
TGI (NCI/ADR-RES ovarian): 6.79 µM
GI50 (OVCAR-3 ovarian): 0.405 µM
TGI (OVCAR-3 ovarian): 1.47 µM
GI50 (OVCAR-5 ovarian): 1.78 µM
TGI (OVCAR-5 ovarian): 3.69 µM
GI50 (OVCAR-8 ovarian): 2.14 µM
TGI (OVCAR-8 ovarian): 5.92 µM
GI50 (PC-3 prostate): 1.73 µM
TGI (PC-3 prostate): 10.2 µM
GI50 (RPMI-8226 leukemia): 1.63 µM
TGI (RPMI-8226 leukemia): 4.4 µM
GI50 (RXF 393 renal): 1.41 µM
TGI (RXF 393 renal): 2.74 µM
GI50 (SF-268 CNS): 3.74 µM
TGI (SF-268 CNS): 20.7 µM
GI50 (SF-295 CNS): 4.58 µM
TGI (SF-295 CNS): 16.3 µM
GI50 (SF-539 CNS): 1.76 µM
TGI (SF-539 CNS): 3.25 µM
GI50 (SK-MEL-2 melanoma): 2.88 µM
TGI (SK-MEL-2 melanoma): 9.57 µM
GI50 (SK-MEL-28 melanoma): 1.99 µM
TGI (SK-MEL-28 melanoma): 3.94 µM
GI50 (SK-MEL-5 melanoma): 1.65 µM
TGI (SK-MEL-5 melanoma): 3.08 µM
GI50 (SK-OV-3 ovarian): 14.3 µM
TGI (SK-OV-3 ovarian): 27.7 µM
GI50 (SN12C renal): 2 µM
TGI (SN12C renal): 5.79 µM
GI50 (SNB-19 CNS): 3.41 µM
TGI (SNB-19 CNS): 24.4 µM
GI50 (SNB-75 CNS): 2.15 µM
TGI (SNB-75 CNS): 6.48 µM
GI50 (SR leukemia): 1.22 µM
TGI (SR leukemia): 3.96 µM
GI50 (SW-620 colon): 2.07 µM
TGI (SW-620 colon): 4.65 µM
GI50 (T-47D breast): 1.55 µM
TGI (T-47D breast): 4.26 µM
GI50 (TK-10 renal): 2.21 µM
TGI (TK-10 renal): 3.73 µM
GI50 (U251 CNS): 2.35 µM
TGI (U251 CNS): 8.09 µM
GI50 (UACC-257 melanoma): 1.64 µM
TGI (UACC-257 melanoma): 3.12 µM
GI50 (UACC-62 melanoma): 2.63 µM
TGI (UACC-62 melanoma): 7.42 µM
GI50 (UO-31 renal): 1.43 µM
TGI (UO-31 renal): 2.87 µM
